For orientation: Kd means the equilibrium constant for the complex coming apart. Low values mean higher affinity, high ones lower affinity.

Non-standard residues stand in square brackets, D forms with d. Residues, ends and D or L forms follow the SMILES beside them. pY = N[C@@H](Cc1ccc(OP(=O)(O)O)cc1)C(=O)O

The target of one assay is T1, c-Src SH2 domain (Homo sapiens, UniProt P12931).
T1 construct: the SH2 domains of two closely-related kinases from the Src subfamily (c-Src and Fyn); made in house
As to the kind of experiment: Competitive fluorescence polarization, c-Src SH2. The assay is classed as binding. As to conditions: Table S3 unpaired validation; competition fluorescence polarization; probe FITC-Ahx-GDG-pY-EEISPLLL-NH2 30 nM; [SH2] 123-126 nM; mean. The text has this: (§1) All peptides containing phosphorylated tyrosine, both fluorescently labelled and non-labelled, were produced by SynPeptide (China).
(In fluorescence polarisation assays a small probe gives low polarisation when free and higher when bound to something large.)
“Ac-QKEAHH-pY-VNWRTG-NH2 [Syn-G2-1 (synthetic)]” had a Kd of 9.66 µM.

Staying with this assay, now noted: Table S5 single-amino-acid substitution pairs; competition fluorescence polarization; probe FITC-Ahx-GDG-pY-EEISPLLL-NH2 30 nM; [SH2] 240 nM; mean.
For `CC[C@H](C)[C@H](NC(=O)CNC(=O)[C@H](CCC(=O)O)NC(=O)[C@@H](NC(=O)[C@H](CCC(N)=O)NC(C)=O)C(C)C)C(=O)N[C@@H](CO)C(=O)N[C@@H](Cc1ccc(OP(=O)(O)O)cc1)C(=O)N[C@@H](CC(=O)O)C(=O)N[C@@H](Cc1ccccc1)C(=O)N[C@H](C(=O)N1CCC[C@H]1C(=O)N[C@H](C(=O)NCC(N)=O)[C@@H](C)O)[C@@H](C)CC` [CBS pY308 G307S] (Ac-QVEGIS[pY]DFIPTG-NH2), the Kd stood at 4.28 µM.
In turn, `CC[C@H](C)[C@H](NC(=O)[C@H](CC(C)C)NC(=O)[C@H](CO)NC(=O)[C@H](Cc1ccc(OP(=O)(O)O)cc1)NC(=O)[C@H](CCCNC(=N)N)NC(=O)[C@H](CCCNC(=N)N)NC(=O)[C@H](CCC(N)=O)NC(=O)[C@H](CC(=O)O)NC(=O)[C@H](CO)NC(=O)[C@H](CCC(N)=O)NC(C)=O)C(=O)N[C@@H](CC(=O)O)C(=O)N[C@@H](CCCNC(=N)N)C(=O)NCC(N)=O` [CLIP2 pY972] (Ac-QSDQRR[pY]SLIDRG-NH2) registered a Kd of 3.98 µM.
`CC(=O)N[C@@H](CCC(N)=O)C(=O)N[C@@H](CO)C(=O)N[C@@H](CC(C)C)C(=O)N[C@@H](CCC(=O)O)C(=O)N[C@@H](CCCCN)C(=O)N[C@@H](CO)C(=O)N[C@@H](Cc1ccc(OP(=O)(O)O)cc1)C(=O)N[C@@H](CCC(=O)O)C(=O)N[C@@H](CC(C)C)C(=O)N[C@@H](CC(C)C)C(=O)N[C@@H](CC(=O)O)C(=O)NCC(=O)NCC(N)=O` [ACTB pY240 P243L] (Ac-QSLEKS[pY]ELLDGG-NH2) yielded a Kd of 6.09 µM.
The same measure, in the same setting: the same measure for `CC[C@H](C)[C@H](NC(=O)CNC(=O)[C@H](CCC(=O)O)NC(=O)[C@@H](NC(=O)[C@H](CCC(N)=O)NC(C)=O)C(C)C)C(=O)NCC(=O)N[C@@H](Cc1ccc(OP(=O)(O)O)cc1)C(=O)N[C@@H](CC(=O)O)C(=O)N[C@@H](Cc1ccccc1)C(=O)N[C@H](C(=O)N1CCC[C@H]1C(=O)N[C@H](C(=O)NCC(N)=O)[C@@H](C)O)[C@@H](C)CC` [CBS pY308] (Ac-QVEGIG[pY]DFIPTG-NH2): 2.73 µM.
Same read-out and setting: the same measure for `CC[C@H](C)[C@H](NC(=O)[C@@H]1CCCN1C(=O)[C@H](CCC(N)=O)NC(C)=O)C(=O)N[C@@H](Cc1ccccc1)C(=O)N[C@@H](CCC(=O)O)C(=O)NCC(=O)N[C@@H](Cc1ccc(OP(=O)(O)O)cc1)C(=O)N[C@@H](C)C(=O)N[C@@H](CC(C)C)C(=O)N1CCC[C@H]1C(=O)N[C@@H](Cc1c[nH]cn1)C(=O)N[C@@H](C)C(=O)NCC(N)=O` [ACTA1 pY171] (Ac-QPIFEG[pY]ALPHAG-NH2): 4.67 µM.
As for `CC(=O)N[C@@H](CCC(N)=O)C(=O)N[C@@H](CO)C(=O)N[C@@H](CC(C)C)C(=O)N[C@@H](CCC(=O)O)C(=O)N[C@@H](CCCCN)C(=O)N[C@@H](CO)C(=O)N[C@@H](Cc1ccc(OP(=O)(O)O)cc1)C(=O)N[C@@H](CCC(=O)O)C(=O)N[C@@H](CC(C)C)C(=O)N1CCC[C@H]1C(=O)N[C@@H](CC(=O)O)C(=O)NCC(=O)NCC(N)=O` [ACTB pY240] (Ac-QSLEKS[pY]ELPDGG-NH2), the affinity, expressed as Kd, was 9.04 µM.

In a further assay the target is T2, Grb2 SH2 domain (Homo sapiens, UniProt P62993).
T2 construct: one distantly-related SH2 domain from the adapter protein Grb2; His6-SUMO (N); mCh (only in the data set names 'Grb2mCh'; possibly an mCherry fusion, never explained); made in house
T2 sequence (P62993 60-152 limits assumed): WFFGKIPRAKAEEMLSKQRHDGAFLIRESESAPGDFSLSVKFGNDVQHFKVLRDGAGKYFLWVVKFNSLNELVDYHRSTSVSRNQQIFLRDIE
As to the kind of experiment: Competitive fluorescence polarization, Grb2 SH2. The class given is binding. As to conditions: Table S3 unpaired validation; competition fluorescence polarization; probe FITC-Ahx-FDDPS(pY)VNVQN 30 nM; [SH2] 123 nM; mean.
Text: as §1
“Ac-QHNIHS-pY-INIPPG-NH2 [Syn-G2-2 (synthetic)]” registered an equilibrium dissociation constant (Kd) of 3.99 nM.
The same measure, in the same setting: next, “Ac-QLGHQR-pY-HNITPG-NH2 [Syn-G2-5 (synthetic)]”: 487 nM.
The compound “Ac-QIEVGT-pY-QNPHNG-NH2 [Syn-G2-7 (synthetic)]” returned a Kd of 3240 nM.
“Ac-QHRLNN-pY-ENNRLG-NH2 [Syn-G2-6 (synthetic)]” displayed a Kd of 2250 nM.
Still for that read-out and setting: next, “Ac-QKEAHH-pY-VNWRTG-NH2 [Syn-G2-1 (synthetic)]”: 31.8 nM.

For a further assay, the target named is T3, Fyn SH2 domain (Homo sapiens, UniProt P06241).
T3 construct: The human SH2 domains from Fyn (142–248), Lyn (121–228); His6-SUMO (N, cleaved yes); made in house; host or cells: E. coli C43(DE3) with BirA helper plasmid
T3 sequence (P06241 142-248): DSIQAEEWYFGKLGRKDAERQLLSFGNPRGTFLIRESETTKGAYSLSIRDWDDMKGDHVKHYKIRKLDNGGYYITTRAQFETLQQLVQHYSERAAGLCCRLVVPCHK
As to the kind of experiment: Competitive fluorescence polarization, Fyn SH2. The assay is classed as binding. The following applies: Table S3 unpaired validation; competition fluorescence polarization; probe FITC-Ahx-GDG-pY-EEISPLLL-NH2 0.4 nM; [SH2] 4.12 nM; mean. How it is done:
Next, the protein was eluted with elution buffer (50 mM Tris, pH 7.5, 50 mM NaCl, 250 mM imidazole, 10% glycerol) directly onto a 5 mL HiTrap Q HP anion exchange column (Cytiva). […] The biotinylated SH2 domain was then collected in a flowthrough after running the cleavage reaction over a HisTrap HP column.
“Ac-QMEKHV-pY-ESVTQG-NH2 [Syn-F-2 (synthetic)]” gave a Kd of 18.3 nM.
“Ac-QLHVHP-pY-EKVEDG-NH2 [Syn-F-1 (synthetic)]” displayed a Kd of 30.2 nM.
